Laboratory results from ChEMBL document CHEMBL1909046, “DrugMatrix in vitro pharmacology data”.

Key:
[1] = biological target: Protein kinase C alpha type (Homo sapiens, UniProt P17252); assay type: cell-based; conditions: sf9;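 note: inhibition of PKCalpha kinase activity measured in an enzyme assay with histone as the phosphorylation substrate; in other assays of this panel Not Active means under 50% inhibition at 10 µM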
[2] = biological target: Mitogen-activated protein kinase 3 (Homo sapiens, UniProt P27361); assay: DRUGMATRIX: Protein Serine/Threonine Kinase, ERK1 enzyme inhibition (substrate: Myelin Basic Protein); design: species or system Escherichia coli; conditions: Not Active = under 50% inhibition at 10 µM
[3] = biological target: Cytochrome P450 2C19 (Homo sapiens, UniProt P33261); conditions: bti-tn-5b1-4; note: in other assays of this panel Not Active means under 50% inhibition at 10 µM
[4] = DRUGMATRIX: Serotonin (5-Hydroxytryptamine) 5-HT3 radioligand binding (ligand: [3H] GR-65630); assay type: cell membranes, Membrane; conditions: hek293; Not Active = under 50% inhibition at 10 µM
[5] = biological target: Sodium-dependent dopamine transporter (Homo sapiens, UniProt Q01959); assay: DRUGMATRIX: Dopamine Transporter radioligand binding (ligand: [125I] RTI-55); assay type: cell membranes, CHO-K1, Membrane; conditions: Not Active = under 50% inhibition at 10 µM
[6] = biological target: Substance-P receptor (Homo sapiens, UniProt P25103); assay type: cell membranes, Membrane; conditions: cho; note: in other assays of this panel Not Active means under 50% inhibition at 10 µM
[7] = DRUGMATRIX: GABAA, Chloride Channel, TBOB radioligand binding (ligand: [3H] TBOB); assay type: cell membranes, Rattus norvegicus, Wistar, Cerebral cortex, Membrane; conditions: Not Active = under 50% inhibition at 10 µM

Chain of Sodium-dependent dopamine transporter (Q01959 whole entry): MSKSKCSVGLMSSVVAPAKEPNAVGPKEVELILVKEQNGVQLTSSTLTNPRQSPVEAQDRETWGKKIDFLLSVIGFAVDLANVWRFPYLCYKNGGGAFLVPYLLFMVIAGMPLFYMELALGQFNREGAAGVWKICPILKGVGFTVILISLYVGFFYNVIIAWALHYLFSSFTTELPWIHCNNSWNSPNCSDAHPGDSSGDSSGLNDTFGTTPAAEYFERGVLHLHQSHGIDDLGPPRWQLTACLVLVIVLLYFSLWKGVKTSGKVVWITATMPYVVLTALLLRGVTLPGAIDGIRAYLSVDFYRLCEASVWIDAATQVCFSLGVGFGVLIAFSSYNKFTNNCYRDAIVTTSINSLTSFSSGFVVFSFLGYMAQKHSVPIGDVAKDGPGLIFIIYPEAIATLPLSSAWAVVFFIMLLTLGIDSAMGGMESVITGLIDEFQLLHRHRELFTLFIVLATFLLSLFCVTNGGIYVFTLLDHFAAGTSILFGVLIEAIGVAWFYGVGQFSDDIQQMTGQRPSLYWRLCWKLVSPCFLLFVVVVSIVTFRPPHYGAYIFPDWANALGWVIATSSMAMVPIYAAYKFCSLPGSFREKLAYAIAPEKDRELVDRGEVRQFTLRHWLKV
Chain of Substance-P receptor (P25103 whole entry): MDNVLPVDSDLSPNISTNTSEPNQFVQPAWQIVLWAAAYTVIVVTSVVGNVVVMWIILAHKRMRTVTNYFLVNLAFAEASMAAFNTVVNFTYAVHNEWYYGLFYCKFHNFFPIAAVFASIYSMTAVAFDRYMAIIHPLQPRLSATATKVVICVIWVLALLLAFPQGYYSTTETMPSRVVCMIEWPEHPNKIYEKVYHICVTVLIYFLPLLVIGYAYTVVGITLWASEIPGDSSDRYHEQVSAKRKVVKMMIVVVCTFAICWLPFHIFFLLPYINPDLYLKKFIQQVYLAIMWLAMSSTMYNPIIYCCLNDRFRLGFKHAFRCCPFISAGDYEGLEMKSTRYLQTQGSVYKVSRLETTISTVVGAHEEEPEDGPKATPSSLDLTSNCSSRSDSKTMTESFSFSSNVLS
Chain of Cytochrome P450 2C19 (P33261 whole entry): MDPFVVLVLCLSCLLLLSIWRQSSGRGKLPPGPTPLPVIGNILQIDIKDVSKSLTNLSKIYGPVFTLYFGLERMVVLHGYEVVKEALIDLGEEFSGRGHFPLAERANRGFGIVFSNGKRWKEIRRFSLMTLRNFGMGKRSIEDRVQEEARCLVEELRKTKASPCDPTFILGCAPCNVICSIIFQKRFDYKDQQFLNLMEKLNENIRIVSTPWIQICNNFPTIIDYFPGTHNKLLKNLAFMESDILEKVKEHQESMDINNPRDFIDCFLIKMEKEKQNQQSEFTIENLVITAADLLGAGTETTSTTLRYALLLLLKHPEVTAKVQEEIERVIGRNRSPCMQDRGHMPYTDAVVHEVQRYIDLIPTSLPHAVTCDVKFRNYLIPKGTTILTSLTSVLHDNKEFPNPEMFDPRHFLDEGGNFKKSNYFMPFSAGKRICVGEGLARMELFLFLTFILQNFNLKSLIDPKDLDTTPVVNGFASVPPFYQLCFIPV
Chain of Mitogen-activated protein kinase 3 (P27361 whole entry): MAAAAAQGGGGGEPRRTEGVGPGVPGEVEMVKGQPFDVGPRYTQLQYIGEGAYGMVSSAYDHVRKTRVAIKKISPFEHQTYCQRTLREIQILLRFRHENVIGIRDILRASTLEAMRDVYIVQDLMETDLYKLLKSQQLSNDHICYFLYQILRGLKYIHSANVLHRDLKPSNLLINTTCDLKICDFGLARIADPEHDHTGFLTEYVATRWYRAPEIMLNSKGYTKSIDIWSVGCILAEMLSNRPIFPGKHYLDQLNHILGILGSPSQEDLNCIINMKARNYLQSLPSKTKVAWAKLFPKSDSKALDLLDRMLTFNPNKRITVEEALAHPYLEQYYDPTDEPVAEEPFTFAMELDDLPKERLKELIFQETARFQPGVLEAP

In the case of `O=C1c2ccccc2C(=O)C1c1ccccc1` [PHENINDIONE], the IC50 [1] is reported as “Not Active”, the IC50 [2] is reported as “Not Active” and the IC50 [3] is reported as “Not Active”. For the same molecule, the Ki [3] was “Not Active”, the IC50 [4] was “Not Active” and the Ki [4] was “Not Active”. The IC50 ([5]; cho-k1) was “Not Active”, the IC50 [6] was “Not Active” and the IC50 [7] was “Not Active”. For the same molecule, the Ki [7] was “Not Active”.
For `OC[C@H]1O[C@@H]2O[C@H]3[C@H](O)[C@@H](O)[C@@H](O[C@H]4[C@H](O)[C@@H](O)[C@@H](O[C@H]5[C@H](O)[C@@H](O)[C@@H](O[C@H]6[C@H](O)[C@@H](O)[C@@H](O[C@H]7[C@H](O)[C@@H](O)[C@@H](O[C@H]8[C@H](O)[C@@H](O)[C@@H](O[C@H]1[C@H](O)[C@H]2O)O[C@@H]8CO)O[C@@H]7CO)O[C@@H]6CO)O[C@@H]5CO)O[C@@H]4CO)O[C@@H]3CO` [BETADEX], the IC50 [1] was “Not Active”, the IC50 [2] was “Not Active” and the IC50 [3] was “Not Active”. For the same molecule, the Ki [3] was “Not Active”, the IC50 [4] was “Not Active” and the Ki [4] was “Not Active”. The IC50 ([5]; cho-k1) was “Not Active”, the IC50 [6] was “Not Active” and the IC50 [7] was “Not Active”. The Ki [7] was “Not Active”.
In the case of `COc1ccc(Cl)cc1C(=O)NCCc1ccc(S(=O)(=O)NC(=O)NC2CCCCC2)cc1` [GLYBURIDE], the IC50 [1] is reported as “Not Active”, the IC50 [2] is reported as “Not Active” and the IC50 [3] is reported as “Not Active”. The Ki [3] was “Not Active”, the IC50 [4] was “Not Active” and the Ki [4] was “Not Active”. The IC50 ([5]; cho-k1) was “Not Active”, the IC50 [6] was “Not Active” and the IC50 [7] was “Not Active”. The Ki [7] was “Not Active”.
For `CCN1CCN(C(=O)N[C@@H](C(=O)N[C@@H]2C(=O)N3[C@@H]2SC(C)(C)[C@@H]3C(=O)O)c2ccccc2)C(=O)C1=O` [PIPERACILLIN], the IC50 [1] was “Not Active”, the IC50 [2] was “Not Active” and the IC50 [3] was “Not Active”. The Ki [3] was “Not Active”, the IC50 [4] was “Not Active” and the Ki [4] was “Not Active”. For the same molecule, the IC50 ([5]; cho-k1) was “Not Active”, the IC50 [6] was “Not Active” and the IC50 [7] was “Not Active”. For the same molecule, the Ki [7] was “Not Active”.
For `CCC1(c2ccccc2)C(=O)NC(=O)NC1=O` [PHENOBARBITAL], the IC50 [1] was “Not Active”, the IC50 [2] was “Not Active” and the IC50 [3] was “Not Active”. For the same molecule, the Ki [3] was “Not Active”, the IC50 [4] was “Not Active” and the Ki [4] was “Not Active”. The IC50 ([5]; cho-k1) was “Not Active”, the IC50 [6] was “Not Active” and the IC50 [7] was “Not Active”. The Ki [7] was “Not Active”.
For `OC[C@H]1O[C@@H]2O[C@H]3[C@H](O)[C@@H](O)[C@@H](O[C@H]4[C@H](O)[C@@H](O)[C@@H](O[C@H]5[C@H](O)[C@@H](O)[C@@H](O[C@H]6[C@H](O)[C@@H](O)[C@@H](O[C@H]7[C@H](O)[C@@H](O)[C@@H](O[C@H]1[C@H](O)[C@H]2O)O[C@@H]7CO)O[C@@H]6CO)O[C@@H]5CO)O[C@@H]4CO)O[C@@H]3CO` [ALFADEX], the IC50 [1] was “Not Active”, the IC50 [2] was “Not Active” and the IC50 [3] was “Not Active”. The Ki [3] was “Not Active”, the IC50 [4] was “Not Active” and the Ki [4] was “Not Active”. The IC50 ([5]; cho-k1) was “Not Active”, the IC50 [6] was “Not Active” and the IC50 [7] was “Not Active”. For the same molecule, the Ki [7] was “Not Active”.
In the case of `Nc1nc(F)nc2c1ncn2[C@@H]1O[C@H](CO)[C@@H](O)[C@@H]1O` [FLUDARABINE], the IC50 [1] is reported as “Not Active”, the IC50 [2] is reported as “Not Active” and the IC50 [3] is reported as “Not Active”. For the same molecule, the Ki [3] was “Not Active”, the IC50 [4] was “Not Active” and the Ki [4] was “Not Active”. The IC50 ([5]; cho-k1) was “Not Active”, the IC50 [6] was “Not Active” and the IC50 [7] was “Not Active”. For the same molecule, the Ki [7] was “Not Active”.
In the case of `O=C(O)CO` [GLYCOLIC ACID], the IC50 [1] is reported as “Not Active”, the IC50 [2] is reported as “Not Active” and the IC50 [3] is reported as “Not Active”. The Ki [3] was “Not Active”, the IC50 [4] was “Not Active” and the Ki [4] was “Not Active”. The IC50 ([5]; cho-k1) was “Not Active”, the IC50 [6] was “Not Active” and the IC50 [7] was “Not Active”. For the same molecule, the Ki [7] was “Not Active”.
For `O=C(NCCN1CCOCC1)c1ccc(Cl)cc1` [MOCLOBEMIDE], the IC50 [1] was “Not Active”, the IC50 [2] was “Not Active” and the IC50 [3] was “Not Active”. For the same molecule, the Ki [3] was “Not Active”, the IC50 [4] was “Not Active” and the Ki [4] was “Not Active”. The IC50 ([5]; cho-k1) was “Not Active”, the IC50 [6] was “Not Active” and the IC50 [7] was “Not Active”. For the same molecule, the Ki [7] was “Not Active”.
With CARBOXYMETHYLCELLULOSE the IC50 [1] was “Not Active”, the Ki [1] was “Not Active” and the IC50 [2] was “Not Active”. The Ki [2] was “Not Active”, the IC50 [3] was “Not Active” and the Ki [3] was “Not Active”. The IC50 [4] was “Not Active”, the Ki [4] was “Not Active” and the IC50 ([5]; cho-k1) was “Not Active”. The Ki ([5]; cho-k1) was “Not Active”, the IC50 [6] was “Not Active” and the Ki [6] was “Not Active”. The IC50 [7] was “Not Active” and the Ki [7] was “Not Active”.
With `COc1ccccc1OCCNCC(O)COc1cccc2[nH]c3ccccc3c12` (stereo not given) [CARVEDILOL] the IC50 [1] was “Not Active”, the IC50 [2] was “Not Active” and the IC50 [3] was “Not Active”. The Ki [3] was “Not Active”, the IC50 [4] was “Not Active” and the Ki [4] was “Not Active”. The IC50 ([5]; read-out: IC50) was 845 nM, the Ki ([5]; read-out: Ki) was 671 nM and the IC50 [6] was “Not Active”. For the same molecule, the IC50 [7] was “Not Active” and the Ki [7] was “Not Active”.
In the case of `NC(N)=Nc1nc(CSCCC(N)=NS(N)(=O)=O)cs1` [FAMOTIDINE], the IC50 [1] is reported as “Not Active”, the IC50 [2] is reported as “Not Active” and the IC50 [3] is reported as “Not Active”. The Ki [3] was “Not Active”, the IC50 [4] was “Not Active” and the Ki [4] was “Not Active”. The IC50 ([5]; cho-k1) was “Not Active”, the IC50 [6] was “Not Active” and the IC50 [7] was “Not Active”. The Ki [7] was “Not Active”.
With `COc1ccc(C[C@H](N)C(=O)N[C@H]2[C@@H](O)[C@H](n3cnc4c(N(C)C)ncnc43)O[C@@H]2CO)cc1` [PUROMYCIN] the IC50 [1] was “Not Active”, the IC50 [2] was “Not Active” and the IC50 [3] was “Not Active”. For the same molecule, the Ki [3] was “Not Active”, the IC50 [4] was “Not Active” and the Ki [4] was “Not Active”. The IC50 ([5]; cho-k1) was “Not Active”, the IC50 [6] was “Not Active” and the IC50 [7] was “Not Active”. The Ki [7] was “Not Active”.
